Data on eleven compounds can be found in US10844052B2, “LLS compounds for treatment of cancer” (THE REGENTS OF THE UNIVERSITY OF CALIFORNIA, priority 2016, dated 2020).

In one series the test system is SKOV3. Nature of the series: Anti-cancer activity against ovarian cancer cells SKOV3 (cell killing in solution / in vitro cell proliferation). It is filed as cell-based. The protocol:
(§1) Biotinylated LLS2 was synthesized in solution and loaded it onto a streptavidin-coated plate. The biotinylated LLS2 immobilized on the plate killed approximately 21% of SKOV3 ovarian cancer cells at 100 μM loading, 16% at 50 μM and 14% at 25 μM (FIG. 4). The killing effect of the LLS2 compound was also tested in solution. […] In addition, LLS2 can kill pancreatic cancer cell line XPA3, prostate cancer cell line PC3, colon cancer cell line HT29, breast cancer cell line MCF7 and lung cancer cell line A549 (FIG. 4).

For the next series, the system named is PC3. The series is described as follows: In vitro cell proliferation / killing assay on PC3 prostate cancer cells. It is filed as cell-based. As to conditions: prostate cancer cell line PC3. The protocol: as §1
The subject of the next series is XPA3. Nature of the series: Cell killing by soluble LLS2, pancreatic cancer cell line XPA3. It is filed as cell-based. On the procedure:
as §1

The next series concerns HT29. The series is described as follows: Cell killing by soluble LLS2, colon cancer cell line HT29. It is filed as cell-based. The protocol: as §1
The test system of another series is MCF7. The series is described as follows: Cell killing by soluble LLS2, breast cancer cell line MCF7. It is filed as cell-based. The protocol:
as §1

Another series deals with A549. The series is described as follows: Cell killing by soluble LLS2, lung cancer cell line A549. It is filed as cell-based. On the procedure:
as §1

The test system of a further series is SKOV3 cells. Nature of the series: In vitro combination of LLS2 with paclitaxel on SKOV3 cells. It is filed as cell-based.
The test system of a further series is SKOV3 xenograft tumors. Nature of the series: SKOV3 xenograft in nude mice, LLS2 alone or with paclitaxel. It is filed as in vivo.
For the next series, the target named is T1, galectin-1 (Homo sapiens, UniProt P09382).
T1 construct: endogenous in cells
Nature of the series: Pull-down with biotinylated LLS2, LC MS/MS and anti-galectin-1 immunoblot. It is filed as binding. As to conditions: biotinylated LLS2, cell membrane protein preparation. On the procedure: LLS2 was biotinylated, incubated with a cell membrane protein preparation, and bound proteins were pulled down with immobilized streptavidin resin. The bound proteins were eluted and subjected to identification by LC MS/MS. The MS result identified galectin-1 as the putative target protein of LLS2 (FIG. 8a). The identity of galectin-1 as the target protein of LLS2 was confirmed by immunoblot analysis of proteins eluted from (i) blank streptavidin-beads, (ii) biotin-LLS2/streptavidin beads, and (iii) biotinylated unrelated small molecule/streptavidin beads, using anti-galectin-1 antibody as the western blot probe (FIG. 8b).

The subject of a further series is GFP-H-Ras(12V). Nature of the series: H-Ras localization (real time confocal) and membrane-associated H-Ras immunoblot. It is filed as cell-based. From the text:
(§2) (b) Once activated by EGF, H-Ras will be partially trafficked to the plasma membrane leading to the activation of Erk pathway. […] (c) Quantification of membrane associated H-Ras (active form) by immunoblot analysis after treatment with buffer (−) or LLS2 (+), showing that LLS2 was able to lower the level of membrane-associated H-Ras. (d) LLS2 also miscolocalized the EGF-stimulated K-Ras(G12V) but not N-Ras(Q61D).
(§3) LLS2 treatment also miscolocalizes the EGF-stimulated K-Ras(G12V), whereas the localization of EGF-stimulated N-Ras(Q61D) is not changed (FIG. 9d). […] Without being bound to any particular theory, this implies that LLS2 induces cell death through suppression of the RAS-ERK pathway.

Another series has as its system K-Ras(G12V). The series is described as follows: K-Ras(G12V) localization and Ras activity assay. It is filed as cell-based.
Source text: as §2, §3

The next series concerns N-Ras(Q61D). Nature of the series: N-Ras(Q61D) localization. It is filed as cell-based.
Source text: as §2, §3

In series [1] the test system is phospho-MEK and phospho-ERK. Nature of the series: Expression level of phospho-MEK and phospho-ERK after LLS2. It is filed as cell-based. As to conditions: treatment for 2 hours.
Source text: as §2, §3

The subject of series [2] is Human umbilical vascular endothelial cells (HUVECs). The series is described as follows: HUVEC tube-formation assay on Matrigel-coated plates. It is filed as cell-based. On the procedure: Human umbilical vascular endothelial cells (HUVECs) we used for tube-formation assays on Matrigel-coated plates as shown in FIG. 10. The expression level of secreted gal-1 in 6 different cancer cell lines was determined using ELISA assay.

In series [3] the test system is prostate cancer PC3 cancer cells.
The mark [4] stands for this setting: Homo sapiens, SK-OV-3, ovarian cancer cells SKOV3.

T1 sequence (P09382 whole entry): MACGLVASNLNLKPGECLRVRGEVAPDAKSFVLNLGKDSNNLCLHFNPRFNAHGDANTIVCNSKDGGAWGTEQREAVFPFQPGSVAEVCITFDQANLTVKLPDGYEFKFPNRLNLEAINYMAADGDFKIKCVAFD
Source text for SKOV3 cells: C.I.<0.9 indicates synergism, C.I.=0.9-1.10 indicates additive interaction, and C.I.>1.1 indicates antagonism.
The synergistic effects of LLS2 with current chemotherapeutic drugs including docetaxel, paclitaxel, 5-Fu, oxaliplatin, carboplatin, doxorubicin and gemcitabine were examined in vitro.
Source text for SKOV3 xenograft tumors: Briefly, 2.5×10^6 SKOV3 cells were subcutaneously injected to the right side of the dorsal flank of the female congenital athymic BALB/c nude mice. The tumors were allowed to grow to about 100 mm^3.
Then, mice were randomly divided into control and treatment groups (n=5). Mice were given a daily I.V. administration for 5 successive days.
SKOV3 ovarian cancer cells were subcutaneously injected on the dorsal flanks of mice.

On to `CC(=O)OCCN(CCOC(C)=O)c1ccc(-c2nc3cc(C(CC(N)=O)NC(=O)[C@@H](N)Cc4ccc(Cl)c(Cl)c4)ccc3n2Cc2ccc(F)c(F)c2)cc1` (stereo partly drawn) [LLS2, ((4-(5-(3-amino-1-((S)-2-amino-3-(3,4-dichlorophenyl)propanamido)-3-oxopropyl)-1-(3,4-difluorobenzyl)-1H-benzo[d]imidazol-2-yl)phenyl)azanediyl)bis(ethane-2,1-diyl) Diacetate], for which the values for the IC50 in the series with SKOV3 (setting [4]) and with SKOV3 (ovarian cancer cells SKOV3) were 15.7 µM and 18.7 µM, respectively. Besides, the cell killing entry in the series on PC3, in the series with XPA3, in the series on HT29, in the series with MCF7 and in the series with A549 was “can kill” each time. Further, the “anti-proliferation effect of combined treatment with paclitaxel” value with SKOV3 cells (SKOV3, LLS2 + paclitaxel) is reported as “much stronger anti-proliferation effects”; in series [3] (PC3, LLS2 + paclitaxel), “much stronger anti-proliferation effects”. Moreover, the “apoptosis after combined LLS2/paclitaxel treatment” value in the series with SKOV3 cells (SKOV3 cells, 24 hours) is recorded as “Increased apoptosis”. Further, the “tolerability (body weight)” value in the series with SKOV3 xenograft tumors (LLS2/paclitaxel combination regimen, nude mice) was “tolerable and without significant side effects”. Moreover, the “tumor size and weight” value in the series with SKOV3 xenograft tumors (LLS2 alone, daily I.V. for 5 successive days, SKOV3 xenograft) was “smaller tumor size”. Further, the tumor growth result with SKOV3 xenograft tumors (combination LLS2/paclitaxel compared to either alone, SKOV3 xenograft) is “significant suppression of tumor growth”. On galectin-1, the “target protein identified by pull-down / immunoblot” value is reported as “target protein of LLS2 was indeed galectin-1”. In addition, the “membrane-localized H-Ras” value in the series on GFP-H-Ras(12V) (25 μM, 15 mins treatment, EGF-activated) was “loss of membrane-localized H-Ras”. In addition, the “localization of EGF-stimulated GFP-H-Ras(12V)” value in the series on GFP-H-Ras(12V) (25 μM, 30 min) is “mis-localizes to intracellular compartments”. The “membrane-associated H-Ras” value in the series on GFP-H-Ras(12V) (LLS2-treated vs non-treated MDCK cells) is recorded as “significant down-expression of H-Ras”. Besides, the “localization of EGF-stimulated K-Ras(G12V)” value in the series with K-Ras(G12V) is on record as “miscolocalizes”. For the same compound, in the series with K-Ras(G12V) (Ras activity assays), the “EGF-stimulated levels of K-Ras-GTP” value is listed as “decreases”. For the same compound, the “localization of EGF-stimulated N-Ras(Q61D)” value with N-Ras(Q61D) is “not changed”. The “expression level of phospho-MEK and phospho-ERK” value in series [1] is reported as “down-regulated”. For the same compound, in series [2], the “angiogenic effect of added gal-1” value is “inhibited”. Further, in series [2] (10 μM), the “tube-formation activity of PC3 conditioned medium” value is reported as “neutralized”.
On to `CC(=O)O[C@H]1C(=O)[C@@]2(C)[C@H]([C@H](OC(=O)c3ccccc3)[C@]3(O)C[C@H](OC(=O)[C@H](O)[C@@H](NC(=O)c4ccccc4)c4ccccc4)C(C)=C1C3(C)C)[C@]1(OC(C)=O)CO[C@@H]1C[C@@H]2O` [Paclitaxel, reference compound], for which the “cytotoxicity, single agent” value with SKOV3 cells (SKOV3 cells, at particular concentrations) is “little effect”; in series [3] it was “moderate cytotoxicity”.
In the series on SKOV3 (setting [4]), `COc1ccc(C[C@@H](N)C(=O)NC(CC(N)=O)c2ccc3c(c2)nc(-c2cccc(Cn4ccnc4)c2)n3CCc2ccccn2)cc1` (stereo partly drawn) [LLS1, (2R)—N-(1-(2-(3-((1H-imidazol-1-yl)methyl)phenyl)-1-(2-(pyridin-2-yl)ethyl)-1H-benzo[d]imidazol-5-yl)-3-amino-3-oxopropyl)-2-amino-3-(4-methoxyphenyl)propanamide] registered an IC50 of 29.5 µM.
Still for that read-out and setting: under `CC(=O)OCCN(CCOC(C)=O)c1ccc(-c2nc3cc(C(CC(N)=O)NC(=O)[C@@H](N)Cc4ccc(Cl)c(Cl)c4)ccc3n2Cc2cc(F)ccc2F)cc1` (stereo partly drawn) [LLS10, ((4-(5-(3-amino-1-((S)-2-amino-3-(3,4-dichlorophenyl)propanamido)-3-oxopropyl)-1-(2,5-difluorobenzyl)-1H-benzo[d]imidazol-2-yl)phenyl)azanediyl)bis(ethane-2,1-diyl) Diacetate] stands 36.4 µM; under `CC(=O)OCCN(CCOC(C)=O)c1ccc(-c2nc3cc(C(CC(N)=O)NCc4ccc(F)c(F)c4)ccc3n2CC23CC4CC(CC(C4)C2)C3)cc1` (stereo not shown) [LLS8, ((4-(1-(((1s,3s)-adamantan-1-yl)methyl)-5-(3-amino-1-((3,4-difluorobenzyl)amino)-3-oxopropyl)-1H-benzo[d]imidazol-2-yl)phenyl)azanediyl)bis(ethane-2,1-diyl) Diacetate], 16.7 µM; under `CC(=O)OCCN(CCO)c1ccc(-c2nc3cc(C(CC(N)=O)NCc4ccc(Cl)c(Cl)c4)ccc3n2Cc2ccc(F)c(Cl)c2)cc1` (stereo not shown) [LLS34, 2-((4-(5-(3-amino-1-((3,4-dichlorobenzyl)amino)-3-oxopropyl)-1-(3-chloro-4-fluorobenzyl)-1H-benzo[d]imidazol-2-yl)phenyl)(2-hydroxyethyl)amino)ethyl Acetate], 8.9 µM.
With `NC(=O)CC(NCc1ccc(Cl)c(Cl)c1)c1ccc2c(c1)nc(-c1ccc(N(CCO)CCO)cc1)n2Cc1ccc(F)c(Cl)c1` (stereo not shown) [LLS31, 3-(2-(4-(bis(2-hydroxyethyl)amino)phenyl)-1-(3-chloro-4-fluorobenzyl)-1H-benzo[d]imidazol-5-yl)-3-((3,4-dichlorobenzyl)amino)propanamide], half-maximal inhibition with SKOV3 (setting [4]) (IC50) required 16.4 µM.
`CC(=O)OCCN(CCO)c1ccc(-c2nc3cc(C(CC(N)=O)NCc4ccc(Cl)c(Cl)c4)ccc3n2Cc2ccc(OC(F)(F)F)cc2)cc1` (stereo not shown) [LLS35, 2-((4-(5-(3-amino-1-((3,4-dichlorobenzyl)amino)-3-oxopropyl)-1-(4-(trifluoromethoxy)benzyl)-1H-benzo[d]imidazol-2-yl)phenyl)(2-hydroxyethyl)amino)ethyl Acetate]: the midpoint of inhibition in the series with SKOV3 (setting [4]), the IC50, lay at 10.8 µM.
On the same count and under the same terms, as for `CC(=O)OCCN(CCO)c1ccc(-c2nc3cc(C(CC(N)=O)NC(=O)[C@@H](N)Cc4ccc(Cl)c(Cl)c4)ccc3n2Cc2ccc(F)c(F)c2)cc1` (stereo partly drawn) [LLS5, 2-((4-(5-(3-amino-1-((S)-2-amino-3-(3,4-dichlorophenyl)propanamido)-3-oxopropyl)-1-(3,4-difluorobenzyl)-1H-benzo[d]imidazol-2-yl)phenyl)(2-hydroxyethyl)amino)ethyl Acetate], the figure is 18.7 µM.
As for `NC(=O)CC(NCc1ccc(Cl)c(Cl)c1)c1ccc2c(c1)nc(-c1ccc(N(CCO)CCO)cc1)n2CC12CC3CC(CC(C3)C1)C2` (stereo not shown) [LLS28, 3-(1-(((1s,3s)-adamantan-1-yl)methyl)-2-(4-(bis(2-hydroxyethyl)amino)phenyl)-1H-benzo[d]imidazol-5-yl)-3-((3,4-dichlorobenzyl)amino)propanamide], the IC50 in the series on SKOV3 (setting [4]) was 16.1 µM.
For the compound `CC(=O)OCCN(CCOC(C)=O)c1ccc(-c2nc3cc(C(CC(N)=O)NCc4ccc(Cl)c(Cl)c4)ccc3n2Cc2ccc(Cl)c(Cl)c2)cc1` (stereo not shown) [LLS20, ((4-(5-(3-amino-1-((3,4-dichlorobenzyl)amino)-3-oxopropyl)-1-(3,4-dichlorobenzyl)-1H-benzo[d]imidazol-2-yl)phenyl)azanediyl)bis(ethane-2,1-diyl) Diacetate], in the series on SKOV3 (setting [4]), the IC50 was determined as 7.5 µM.
